In US20060206946A1, “Method of disrupting heme transport in nematodes and of modelling and evaluating eukaryotic heme transport” (priority 2005, published 2006):
“Also recorded” adds a separate entry of the source.

Legend:
Assay in all cases: Growth of heme resistant mutant in CeHR medium
Assay type in all cases: in vivo, Caenorhabditis elegans
C. elegans mutant IH728 = tested on: C. elegans mutant IH728
Method: (§1) To further increase the stringency of our genetic screen we split the contents from each 800 μM hemin selection flasks into two flasks containing either 800 μM or 1000 μM hemin. This allowed us to use another tier of positive selection to identify mutants with greater resistance to heme toxicity. Mutants from each flask were isolated and treated as a separate entity by giving an identification number based on the Genetic Nomenclature Guidelines used for C. elegans (http://biosci.umn.edu/CGC/Nomenclature/nomenguid.htm). To eliminate EMS-induced spurious mutations that could result in false positive, the mutants were outcrossed to wild-type N2 males. After five outcrosses, which replaces ˜97% of the mutant genome, mutants that bred true were selected for further analysis. Using this procedure, we isolated 13 individual mutants that were resistant to heme toxicity. These mutants were further characterized by analyzing Mendelian segregation ratios, X-linkage, phenotype penetrance, generation times, brood size, and their ability to grow under low hemin. […] This observation was surprising because we anticipated that high heme-resistant mutants will grow poorly under low heme. Based on the mutant's growth profile at low and high heme levels, we broadly categorized them into three phenotypic classes: class A, class B and class C (FIG. 13). These “phenoclusters” have the following growth phenotype: (a) three mutants IH728, IH938, IH731 show with robust growth under low and high (≧800 μM heme (FIG. 13B), (b) one mutant IH828 show exceptional growth under low heme, moderate growth at ≦800 μM heme, and no growth at 1000 μM hemin (FIG. 13C), and (c) six mutants IH921, IH11058, IH1068n, IH1068d, IH1048, and IH718 that show moderate growth under high heme (≦800 μM), but normal growth under low heme (FIG. 13D). By classifying these mutants into phenoclusters, we can focus our efforts on the phenotypic datasets to map the molecular networks and pathways involved in heme dependent processes. For instance, mutants in a cluster may have mutations within the same gene or in multiple genes but within the same pathway.
(§2) Worm Culture and Growth Assays. Free-living worms were cultured in CeHR axenic liquid medium (Dr. Eric Clegg, Personal Communication). […] CeHR medium was modified (henceforth called mCeHR) to eliminate all sources of exogenously added heme; basal growth medium comprised 20 μM hemin chloride (Frontier Scientific, Logan, Utah) and 150 μM of ferrous ammonium sulfate (Sigma Chemicals). Worm strains were grown in mCeHR medium under aerobic conditions in tissue culture flasks at 20° C. ˜3.7×10^6 worms were routinely obtained after 3.5 to 4 days in a T75 flask with 30 ml basal medium from an initial inoculum of −1.5×10^5 worms. For initial culturing of worms in axenic media, three generations of worms were sequentially bleached (1.1% bleach/0.55 M NaOH) to eliminate any contaminating bacterial carryover from agar plates. In all dose-response experiments, worms were growth synchronized by treating the gravid hermaphrodite worms with bleach to dissolve adult worms. The eggs, resistant to bleach, were liberated from the carcasses and extensively washed with M9 buffer followed by overnight hatching in M9 buffer to synchronize growth. By harvesting at appropriate time intervals, synchronous larval stages and adult staged worms were collected for experimental manipulations. Identical numbers of synchronized L1 larvae were inoculated into media with different heme concentrations in 12- or 24-well culture plates. Worm growth was monitored each day and an aliquot was obtained for counting by microscopy usually at days 3, 6, and 9. The worms in each well were counted twice and each growth condition was analyzed in triplicate. P values for statistical significance were calculated utilizing a one-way ANOVA with Student-Newman-Keuls multiple comparison test using GraphPad Instat version 3.01. […]

C. elegans mutant IH731 = tested on: C. elegans mutant IH731
Method: as §1, §2

C. elegans mutant IH828 = tested on: C. elegans mutant IH828
Method: as §1, §2

C. elegans mutant IH938 = tested on: C. elegans mutant IH938
Method: as §1, §2

[1] = 20 μM hemin, average in 24 well plates

hemin chloride
Generation time (Days) 20 μM (C. elegans mutant IH728; 20 μM hemin): 3.5 days
brood size 20 μM (C. elegans mutant IH728; [1]): 53
Generation time (Days) 800 μM (C. elegans mutant IH728; 800 μM hemin): 4 days
Generation time (Days) 20 μM (C. elegans mutant IH731; 20 μM hemin): 3.5 days
brood size 20 μM (C. elegans mutant IH731; [1]): 53
Generation time (Days) 800 μM (C. elegans mutant IH731; 800 μM hemin): 4 days
resistance of IH828 (C. elegans mutant IH828; 800 μM hemin): moderately resistant
growth of IH828 (C. elegans mutant IH828; 1000 μM hemin): no growth; also recorded: does not grow
Generation time (Days) 20 μM (C. elegans mutant IH828; IH828, 20 μM hemin): 3.5 days
brood size 20 μM (C. elegans mutant IH828; IH828, 20 μM hemin, average in 24 well plates): 67
Generation time (Days) 800 μM (C. elegans mutant IH828; IH828, 800 μM hemin): 4 days
Generation time (Days) 20 μM (C. elegans mutant IH938; 20 μM hemin): 3.5 days
brood size 20 μM (C. elegans mutant IH938; [1]): 72
Generation time (Days) 800 μM (C. elegans mutant IH938; 800 μM hemin): 4 days
